This note sets out measurements from patent publication US9771326B2, “S1P and/or ATX modulating agents” (BIOGEN MA INC., priority 2012, dated 2017).

The test system of assay [1] is A2B5+ OPCs. Description: OPC differentiation assay. The assay is classed as cell-based, Sprague Dawley rats. The note with it: 72 h; rat OPCs in CNTF/T3 media, 3-day incubation, MSD analysis; read-out: positive in the OPC assay (concentration). How it is done: OPC Differentiation Assay
Enriched populations of oligodendrocytes were grown from post-natal day 2 (P2) female Sprague Dawley rats. The forebrain was dissected out and placed in Hank's buffered saline solution (HBSS; Invitrogen, Grand Island, N.Y.). The tissue was cut into 1 mm fragments and incubated at 37° C. for 15 minutes in 0.01% trypsin and 10 μg/mL DNase. Dissociated cells were plated on poly-L-lysine-coated T75 tissue culture flasks and grown at 37° C. for 10 days in Dulbecco's modified Eagle's medium (DMEM) with 20% fetal calf serum (Invitrogen). A2B5^+ OPCs were collected by shaking the flask overnight at 200 rpm and 37° C., resulting in a 95% pure population.
For the differentiation assay, 2 μM and 20 μM antagonist or the same concentrations of vehicle (DMSO) were applied to OPCs cultured in CNTF/T3 containing media. After a 3-day incubation, after a 3-day incubation, cell were lysed and then subjected to MSD (Meso Scale Discovery-R) analysis. EC50 was calculated by Prism using a nonlinear sigmoidal dose-response curve cells. Alternatively, cells were lysed in 80 μL lysis buffer (50 mM HEPES [4-(2-hydroxyethyl)-1-piperazine ethanesulfonic acid], pH 7.5, 150 mM NaCl, 1.5 mM MgCl2, 1 mM ethylene glycol tetraacetic acid [EGTA], 1% Triton X-100 and 10% glycerol) for 30 minutes at 4° C. After centrifugation at 14,000 g for 15 minutes, the supernatants were boiled in Laemmli sample buffer, subjected to 4-20% SDS-PAGE, and analyzed by Western blotting with anti-MBP, anti-myelin-associated glycoprotein (MAG), or anti-beta actin antibodies. The secondary antibodies used were anti-mouse IgG-HRP (horseradish peroxidase) and anti-rabbit IgG-HRP respectively.

Assay [2] deals with T1, S1P4 (Homo sapiens, UniProt O95977).
T1 sequence (O95977 1-384): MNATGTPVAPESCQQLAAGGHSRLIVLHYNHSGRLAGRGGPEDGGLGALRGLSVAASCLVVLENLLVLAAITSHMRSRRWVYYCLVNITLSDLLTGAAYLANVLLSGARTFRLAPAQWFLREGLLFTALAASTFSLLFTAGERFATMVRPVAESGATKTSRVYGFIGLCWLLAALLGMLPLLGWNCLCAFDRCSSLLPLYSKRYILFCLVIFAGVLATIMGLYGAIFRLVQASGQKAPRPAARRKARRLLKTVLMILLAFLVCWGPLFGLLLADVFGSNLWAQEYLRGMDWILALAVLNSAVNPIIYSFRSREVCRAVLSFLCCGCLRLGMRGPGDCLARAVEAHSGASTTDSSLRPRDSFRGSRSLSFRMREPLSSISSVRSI
Description: S1P receptor calcium flux assay, agonist format (S1P4). The assay is classed as cell-based. The note with it: FLIPR TETRA. From the text:
(§1) S1P Receptor Activity Assays Agonist percentage activation determinations were obtained by assaying sample compounds and referencing the Emax control for each receptor profiled. Antagonist percentage inhibition determinations were obtained by assaying sample compounds and referencing the control EC80 wells for each receptor profiled. The samples were run using a “Single Addition” assay protocol for the agonist and antagonist assay run. The protocol design was as follows: Compound Preparation Master stock solution: Unless specified otherwise, all sample compounds were diluted in 100% anhydrous DMSO including all serial dilutions. All control wells contained identical solvent final concentrations as did the sample compound wells. Compound plate for assay: The sample compounds were transferred from a master stock solution into a daughter plate that was used in the assay. Each sample compound was diluted into assay buffer (1×HBSS with 20 mM HEPES and 2.5 mM Probenecid) at an appropriate concentration to obtain final concentrations. […] Assay was read for 180 seconds using the FLIPR^TETRA (This assay run added sample compounds and reference agonist to respective wells). […] Once baseline corrections were processed, maximum fluorescence values were exported and data manipulated to calculate percentage activation, percentage inhibition and Z′.
(In general: Calcium flux is commonly read through the fluorescence of an indicator in the cells.)

Assay [3] has as its target S1P3 (Homo sapiens, UniProt Q99500). Description: S1P receptor calcium flux assay, agonist format (S1P3). The assay is classed as cell-based. The note with it: FLIPR TETRA.
Excerpt: as §1

pEC50: −log10 of the molar value.

Sequence of S1P3 (Q99500 whole entry): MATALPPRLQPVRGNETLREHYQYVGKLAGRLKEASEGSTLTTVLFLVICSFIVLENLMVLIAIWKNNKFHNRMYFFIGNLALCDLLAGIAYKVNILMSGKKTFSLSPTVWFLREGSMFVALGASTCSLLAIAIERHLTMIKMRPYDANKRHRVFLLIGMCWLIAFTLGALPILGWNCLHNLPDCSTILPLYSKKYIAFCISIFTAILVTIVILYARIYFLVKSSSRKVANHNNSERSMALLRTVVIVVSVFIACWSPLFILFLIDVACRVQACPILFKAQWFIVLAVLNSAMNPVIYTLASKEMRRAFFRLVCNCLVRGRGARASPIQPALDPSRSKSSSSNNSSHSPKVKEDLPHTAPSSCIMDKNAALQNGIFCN

In the case of `CC(C)(C)[C@H]1CC[C@H](Oc2cccc(-c3cccc(CNCCC(=O)O)c3)c2)CC1` [Example 4, 3-(((3′-((trans-4-(tert-Butyl)cyclohexyl)oxy)-[1,1′-biphenyl]-3-yl)methyl)amino)propanoic acid], the minimal effective concentration in assay [1] was in the range of 0.5 to 5 µM. Consider `CC(C)(C)[C@H]1CC[C@H](Oc2ccc(-c3cccc(CNC4CC(C(=O)O)C4)c3)cc2)CC1` (stereo partly drawn) [Example 10, 3-(((4′-((trans-4-(tert-Butyl)cyclohexyl)oxy)-[1,1′-biphenyl]-3-yl)methyl)amino)cyclobutanecarboxylic acid], for which, in assay [1], the minimal effective concentration lay in the range of 0.5 to 5 µM. Consider `CC(C)(C)[C@H]1CC[C@H](Oc2ccc(-c3ccc(CNCCC(=O)O)cc3)cc2)CC1` [Example 24, 3-((4′-(trans-4-tert-Butylcyclohexyloxy)biphenyl-4-yl)methylamino)propanoic acid], for which the minimal effective concentration in assay [1] fell in the range of 0.5 to 5 µM.

With `CC(C)(C)[C@H]1CC[C@H](n2nc(-c3cccc(CNCCC(=O)O)c3)ccc2=O)CC1` [Example 48, 3-((3-(1-(trans-4-(tert-butyl)cyclohexyl)-6-oxo-1,6-dihydropyridazin-3-yl)benzyl)amino)propanoic acid], the “S1P4 agonist activity EC50” value in assay [2] was in the range of 0.001 to 5 µM. As for `CC(C)(C)[C@H]1CC[C@H](Oc2cnc(-c3cccc(CNCCC(=O)O)c3)nc2)CC1` [Example 50, 3-(3-(5-(trans-4-tert-Butylcyclohexyloxy)pyrimidin-2-yl)benzylamino)propanoic acid], the negative logarithm of the EC50 (pEC50) in assay [3] is 5.30 to 7.30. `CC(C)(C)[C@H]1CC[C@H](Oc2ccc(-c3csc(CNCCC(=O)O)n3)cc2)CC1` [Example 62, 3-(((4-(4-((trans-4-(tert-Butyl)cyclohexyl)oxy)phenyl)thiazol-2-yl)methyl)amino)propanoic acid]: in assay [1], the minimal effective concentration was in the range of 0.5 to 5 µM. For `CC(C)(C)[C@H]1CC[C@H](Oc2ccc(-n3cc(CN4CCC(C(=O)O)CC4)nn3)cc2)CC1` [Example 93, 1-((1-(4-(trans-4-tert-Butylcyclohexyloxy)phenyl)-1H-1,2,3-triazol-4-yl)methyl)piperidine-4-carboxylic acid], the minimal effective concentration in assay [1] was 0.5 to 5 µM. Same read-out and setting: under `CC(C)(C)[C@H]1CC[C@H](Oc2ccc(-c3cccc(CNCCC(=O)O)c3F)cc2)CC1` [Example 95] stands 0.5 to 5 µM; under `O=C(O)C1CCN(Cc2cccc(-c3ccc(OC4CCC5(CCC5)CC4)cc3)c2F)C1` (centres unmarked) [Example 106, 1-((2-fluoro-4′-(spiro[3.5]nonan-7-yloxy)-[1,1′-biphenyl]-3-yl)methyl)pyrrolidine-3-carboxylic acid], 0.5 to 5 µM; under `O=C(O)C1CCN(Cc2cccc(-c3ccc(OC4CCC5(CCCC5)CC4)cc3)c2F)C1` (centres unmarked) [Example 114, 1-((2-fluoro-4′-(spiro[4.5]decan-8-yloxy)-[1,1′-biphenyl]-3-yl)methyl)pyrrolidine-3-carboxylic acid], 0.5 to 5 µM. Same read-out and setting: under `O=C(O)C1CCCN(Cc2cccc(-c3ccc(OC4CCC5(CCCC5)CC4)cc3)c2F)C1` (centres unmarked) [Example 115, 1-((2-fluoro-4′-(spiro[4.5]decan-8-yloxy)-[1,1′-biphenyl]-3-yl)methyl)piperidine-3-carboxylic acid] stands 0.5 to 5 µM; under `CC(C)[C@H]1CC[C@H](Oc2ccc(-c3cccc(CN4CCC(C(=O)O)C4)c3F)cc2)CC1` (some centres unmarked) [Example 138, 1-((2-fluoro-4′-(((1r,4r)-4-isopropylcyclohexyl)oxy)-[1,1′-biphenyl]-3-yl)methyl)pyrrolidine-3-carboxylic acid], 0.5 to 5 µM. On to `CC(C)[C@H]1CC[C@H](Oc2ccc(-c3cccc(CN4CCCC(C(=O)O)C4)c3F)cc2)CC1` (some centres unmarked) [Example 139, 1-((2-fluoro-4′-(((1r,4r)-4-isopropylcyclohexyl)oxy)-[1,1′-biphenyl]-3-yl)methyl)piperidine-3-carboxylic acid], for which, in assay [1], the minimal effective concentration was 0.5 to 5 µM.

For `CC(C)[C@H]1CC[C@H](Oc2ccc(-c3cccc(CN4CCC(C(=O)O)CC4)c3F)cc2)CC1` [Example 140, 1-((2-fluoro-4′-(((1r,4r)-4-isopropylcyclohexyl)oxy)-[1,1′-biphenyl]-3-yl)methyl)piperidine-4-carboxylic acid], the minimal effective concentration in assay [1] is 0.5 to 5 µM.

As usually defined, the pEC50 is the negative decadic logarithm of the EC50, by convention in mol/L.
